According to US20080038208A1, “Pharmaceutical/cosmetic compositions comprising the lysine-d-proline-valine tripeptide” (SOCIETE L'OREAL S.A., priority 1995, published 2008):
Values belong to the substance of their own block, whether it stands above or below them.

Assays:
[1] = test system: catagenic papilla cells (PGE2 production); assay: Inhibition of IL-1α-induced production of PGE2 by catagenic papilla cells cultured in vitro; format: cell-based; settings: 10 μM tripeptide; for PGE2: IL-1α 10 ng/ml for 20 hours, control 9.2, IL-1α alone 100.2; for % inhibition: PGE2 production induced by IL-1α 10 ng/ml
Protocol: Measurement of the inhibition of the production of PGE2 by catagenic papilla cells cultured in vitro.
The cells (1,000 per well), at the 24th passage, were incubated in 199 medium marketed by Gibco in the presence of 1% foetal calf serum and of antibiotics. 20 hours later, the medium was replaced by an identical medium, but containing the tripeptides to be evaluated at a final concentration of 10 μM. 5 hours later, interleukin-1α was added at a final concentration of 10 ng/ml. 20 hours later, the PGE2 levels produced by the cultured papilla cells were evaluated by means of a Biotrack kit marketed by Amersham, the manufacturer's instructions being followed. This method thus made it possible to evaluate the inhibiting effect of these tripeptides on the production of PGE2 induced by a proinflammatory cytokine: interleukin-1α.

[2] = test system: mRNA of the type-1 IL-1 receptor (IL-1R1); assay: Expression of type-1 IL-1 receptor messenger RNA in plucked hairs (RT-PCR, relative to GAPDH), 3 h 30 min; format: cell-based, human; settings: treated batch, band intensity divided by GAPDH, control batch 100%
Protocol: (§1) Inhibition of the expression of the messenger RNAs of proinflammatory and inflammatory cytokines in response to the Ac-KPV-NH2* tripeptide.
(§2) Ten plucked hairs were removed from the region of the vertex of a volunteer suffering from inflammatory alopecia. These were placed in a Williams' survival medium E (marketed by Gibco BRL) containing penicillin G (100 units/ml), streptomycin S (100 μg/ml) and amphotericin (250 ng/ml), in the presence (treated batch) or in the absence (control) of the Ac-KPV-NH2* tripeptide, synthesized to order by Neosystem S. A., (Strasbourg).
(§3) After incubating for 3 h, 30 min, the messenger RNAs corresponding to these two batches of hair were purified from a “quick prep mRNA purification kit” marketed by Pharmacia. DNAs complementary to these mRNAs were then prepared by means of a reverse transcription kit marketed by Pharmacia, the manufacturer's instructions being followed, and then subjected to a polymerization chain reaction (PCR) stage by using primers specific for the mRNAs of glyceraldehyde-3-phosphate dehydrogenase (GAPDH), of IL-1α, of the type-1 IL-1 receptor and of the type-2 IL-1 receptor. The amounts of amplified DNA were then evaluated by electrophoresis on 1.5% agarose gel in the presence of ethidium bromide. […]

[3] = test system: mRNA of IL-1α; assay: Expression of IL-1α messenger RNA in plucked hairs (RT-PCR, relative to GAPDH), 3 h 30 min; format: cell-based, human; settings: treated batch, band intensity divided by GAPDH, control batch 100%
Protocol: as §1, §2, §3

[4] = test system: interleukin-1α; assay: Production of interleukin-1α in the supernatant of plucked hairs from a patient with inflammatory alopecia (ELISA); format: cell-based, human; settings: 20 hours; for % of inhibition: IL-1α in supernatant of plucked hairs; for IL-1α: supernatant of plucked hairs, control 21.8 pg/ml
Protocol: Dose-response activity of the Ac-KPV-NH2* tripeptide with respect to the production of interleukin-1α in the supernatant of plucked hairs emanating from a patient afflicted with inflammatory alopecia.
Plucked hairs were removed from the region of the vertex of a volunteer suffering from inflammatory alopecia. They were placed in a Williams' survival medium E (marketed by Gibco BRL) containing penicillin G (100 units/ml), streptomycin S (100 μg/ml) and amphotericin (250 ng/ml), in the presence or in the absence (control) of the Ac-KPV-NH2* tripeptide, synthesized to order by Neosystem S. A. (Strasbourg), at the doses indicated. After incubating for 20 hours, the culture supernatants were collected in a tube and then centrifuged for 5 minutes at 14,000 revolutions/minute (Eppendorff centrifuge, model 5415C). The supernatants were then collected in a clean tube and placed at 4° C.
The interleukin-1α concentration was then evaluated with respect to 100 μl of supernatant by means of a Biotrak ELISA kit marketed by Amersham, according to the manufacturer's instructions.

[5] = test system: mRNAs of IL-1α; assay: Expression of the mRNAs of IL-1α calculated from the IL-1α/GAPDH ratio, plucked hairs of two donors, 20 hours; format: cell-based, human
Protocol: Inhibiting effect of Ac-KPV-NH2* on the expression of the mRNAs of IL-1α, calculated from the IL-1α/GAPDH ratio.
5 hairs were plucked from two different donors and were then incubated for 20 hours at 37° C. (5% CO2) in Williams' medium E supplemented with antibiotics and with glutamine and in the presence of Ac-KPV-NH2* at the concentrations indicated. A control was carried out in which there was no peptide added.

Substance: Acetyl-(L)Lys-(L)Pro-(L)Val-NH2 [Ac—K—P—V—NH2**, reference compound]
- PGE2 [1]: 10.0 pg/mL
- % inhibition [1]: 90%

- % of expression IL-1R1 [2]: 26%
Substance: Acetyl-(D)Lys-(D)Pro-(D)Val-NH2 [Ac—KPV—NH2*]
- % of expression IL-1α [3]: 0%
- % of inhibition ([4]; 1 μM): 49%
- IL-1α ([4]; 1 μM): 11.1 pg/mL
- % of inhibition ([4]; 10 μM): 72%
- IL-1α ([4]; 10 μM): 6.1 pg/mL
- expression of the mRNAs of IL-1α (IL-1α/GAPDH ratio), % of the control ([5]; donor A, 1 μM): 51%
- expression of the mRNAs of IL-1α (IL-1α/GAPDH ratio), % of the control ([5]; donor A, 10 μM): 28%
- expression of the mRNAs of IL-1α (IL-1α/GAPDH ratio), % of the control ([5]; donor B, 0.1 μM): 53%
- expression of the mRNAs of IL-1α (IL-1α/GAPDH ratio), % of the control ([5]; donor B, 1 μM): 62%
- expression of the mRNAs of IL-1α (IL-1α/GAPDH ratio), % of the control ([5]; donor B, 10 μM): 28.7%
- PGE2 [1]: 28.0 pg/mL
- % inhibition [1]: 78%

Substance: Acetyl-(L)Lys-(D)Pro-(L)Val-NH2 [Ac—K—(D)P—V—NH2***]
- PGE2 [1]: 24.6 pg/mL
- % inhibition [1]: 75%
